Test system: Plasmodium berghei
Assay: Luciferase/luciferin-expressing antifolate-resistant parasites were used to infect a culture of HepG2 cells that were pre-incubated with compounds. Infected hepatocytes emit light due to the luciferase reaction. Assay results are presented as the percent inhibition of light emission compared to control. […]
Type: functional
Conditions: sporozoite; for IC90: read-out: LUCIFERASE INFECTION ASSAY - IC90

SMILES | IC90 [µM] | other results
COc1ccc(C(C)(C)C)cc1NC(=O)c1ccc(Cl)c(S(=O)(=O)N2CCc3ccccc32)c1 | > 10 | IC50 (FFLUC_HILL_SLOPE 21.6, FFLUC_R_SQUARED 0.0861, HEPG2TOX_HILL_SLOPE 0.0233, HEPG2TOX_R_SQUARED 0.0468, PBLUC_HILL_SLOPE 7.45, PBLUC_R_SQUARED 0.387, read-out: LUCIFERASE INFECTION ASSAY - IC50): 8.38 µM
Oc1c(Cn2c(=S)sc3ccccc32)cc(Cl)c2cccnc12 | 1.24 | IC50 (FFLUC_HILL_SLOPE 19.2, FFLUC_R_SQUARED 0.535, HEPG2TOX_HILL_SLOPE 1.74, 1.21, HEPG2TOX_R_SQUARED 0.199, 0.803, PBLUC_HILL_SLOPE 4.66, PBLUC_R_SQUARED 0.802, read-out: LUCIFERASE INFECTION ASSAY - IC50): 0.772 µM
Nc1c(C(=O)c2ccccc2O)cnn1-c1ccccc1C(F)(F)F | 3.04 | IC50 (FFLUC_HILL_SLOPE 18.9, FFLUC_R_SQUARED 0.573, PBLUC_HILL_SLOPE 1.34, PBLUC_R_SQUARED 0.647, read-out: LUCIFERASE INFECTION ASSAY - IC50): 0.594 µM
Clc1cccc(-c2[nH]nc3nccc(-c4ccc(N5CCNCC5)cc4)c23)c1 | 4.08 | IC50 (FFLUC_HILL_SLOPE 19.9, FFLUC_R_SQUARED 0.198, HEPG2TOX_HILL_SLOPE 3.67, HEPG2TOX_R_SQUARED 0.922, PBLUC_HILL_SLOPE 10.3, PBLUC_R_SQUARED 0.464, read-out: LUCIFERASE INFECTION ASSAY - IC50): 3.3 µM
CN(c1ccccc1)S(=O)(=O)c1ccc(C(=O)Nc2nc(-c3cc(Cl)sc3Cl)cs2)cc1 | 8.48 | IC50 (FFLUC_HILL_SLOPE 19.7, FFLUC_R_SQUARED 0.521, HEPG2TOX_HILL_SLOPE 3.83, HEPG2TOX_R_SQUARED 0.989, PBLUC_HILL_SLOPE 4.8, PBLUC_R_SQUARED 0.68, read-out: LUCIFERASE INFECTION ASSAY - IC50): 5.36 µM
CCC(C)NC(=O)c1c(NC(=O)c2cccc(OC)c2)nc2ccc(C)cn12 (stereo not given) | > 8.67 | IC50 (FFLUC_HILL_SLOPE 19.6, FFLUC_R_SQUARED 0.348, HEPG2TOX_HILL_SLOPE 6.15, HEPG2TOX_R_SQUARED 0.729, PBLUC_HILL_SLOPE 3.4, PBLUC_R_SQUARED 0.659, read-out: LUCIFERASE INFECTION ASSAY - IC50): 5.09 µM
COc1cc2c(cc1OC)C(c1cccs1)N(CC(=O)Nc1ccccc1C(F)(F)F)CC2 (stereo not given) | > 10 | IC50 (FFLUC_HILL_SLOPE 19.7, FFLUC_R_SQUARED 0.151, HEPG2TOX_HILL_SLOPE 1.77, HEPG2TOX_R_SQUARED 0.955, PBLUC_HILL_SLOPE 2.27, PBLUC_R_SQUARED 0.356, read-out: LUCIFERASE INFECTION ASSAY - IC50): 5.2 µM
O=C1C=CC(=O)N1c1ccccc1OC(F)(F)F | > 12.8 | IC50 (FFLUC_HILL_SLOPE 21.4, FFLUC_R_SQUARED 0.595, PBLUC_HILL_SLOPE 3.16, PBLUC_R_SQUARED 0.111, read-out: LUCIFERASE INFECTION ASSAY - IC50): 8.21 µM
O=C(OCc1csc(-c2ccccc2)n1)c1cc(O)c2ccccc2c1O | > 10 | IC50 (FFLUC_HILL_SLOPE 21.7, FFLUC_R_SQUARED 0.124, read-out: LUCIFERASE INFECTION ASSAY - IC50): > 10 µM
COc1ccc(-c2cnc3ccc(-c4cccc(OC(F)(F)F)c4)nn23)cc1OC | 1.23 | IC50 (FFLUC_HILL_SLOPE 21.1, FFLUC_R_SQUARED 0.421, PBLUC_HILL_SLOPE 16.1, PBLUC_R_SQUARED 0.675, read-out: LUCIFERASE INFECTION ASSAY - IC50): 1.08 µM
CCCCNC(=O)c1c(NC(=O)c2ccc(F)cc2)nc2ccccn12 | 3.43 | IC50 (FFLUC_HILL_SLOPE 20.6, FFLUC_R_SQUARED 0.0581, HEPG2TOX_HILL_SLOPE 2.28, HEPG2TOX_R_SQUARED 0.75, PBLUC_HILL_SLOPE 12.8, PBLUC_R_SQUARED 0.452, read-out: LUCIFERASE INFECTION ASSAY - IC50): 2.88 µM
Cc1cccc(NC(=O)NC(=O)CSc2ccc(S(=O)(=O)N(C)C)cn2)c1C | > 10 | IC50 (FFLUC_HILL_SLOPE 22.1, FFLUC_R_SQUARED 0.241, read-out: LUCIFERASE INFECTION ASSAY - IC50): > 10 µM
Cc1ccnc(NC(c2cccc(C)n2)c2ccc3cccnc3c2O)c1 (stereo not given) | > 9.26 | IC50 (FFLUC_HILL_SLOPE 20.2, FFLUC_R_SQUARED 0.523, HEPG2TOX_HILL_SLOPE 12.4, HEPG2TOX_R_SQUARED 0.193, PBLUC_HILL_SLOPE 13.3, PBLUC_R_SQUARED 0.0907, read-out: LUCIFERASE INFECTION ASSAY - IC50): 7.89 µM
O=c1c(Cl)c(Cl)cnn1Cc1nc2cc(Cl)ccc2n1Cc1ccccc1 | > 10 | IC50 (FFLUC_HILL_SLOPE 21.9, FFLUC_R_SQUARED 0.587, HEPG2TOX_HILL_SLOPE 12.6, HEPG2TOX_R_SQUARED 0.77, read-out: LUCIFERASE INFECTION ASSAY - IC50): > 10 µM
NC(=NNC(=S)Nc1ccccc1C(F)(F)F)c1ccccn1 | 2.78 | IC50 (FFLUC_HILL_SLOPE 21.9, FFLUC_R_SQUARED 0.597, HEPG2TOX_HILL_SLOPE 0.969, HEPG2TOX_R_SQUARED 0.909, PBLUC_HILL_SLOPE 1.81, PBLUC_R_SQUARED 0.836, read-out: LUCIFERASE INFECTION ASSAY - IC50): 0.826 µM
N#CC(C#N)=C/C=C(/Sc1nc(-c2ccccc2)cs1)c1ccc(Cl)cc1 | > 8.13 | IC50 (FFLUC_HILL_SLOPE 19.5, FFLUC_R_SQUARED 0.704, PBLUC_HILL_SLOPE 6.45, PBLUC_R_SQUARED 0.183, read-out: LUCIFERASE INFECTION ASSAY - IC50): > 8.13 µM
CC(C)c1ccc2c(c1)/C(=N/NC(=S)NCCc1ccccc1)C(=O)N2 | 8.12 | IC50 (FFLUC_HILL_SLOPE 19.2, FFLUC_R_SQUARED 0.695, HEPG2TOX_HILL_SLOPE 7.84, HEPG2TOX_R_SQUARED 0.253, PBLUC_HILL_SLOPE 4.58, PBLUC_R_SQUARED 0.343, read-out: LUCIFERASE INFECTION ASSAY - IC50): 5.02 µM
Cc1ccc(Cn2nc(C)cc2C(=O)Sc2ccc(Cl)cc2)cc1 | > 9.25 | IC50 (FFLUC_HILL_SLOPE 19.8, FFLUC_R_SQUARED 0.763, PBLUC_HILL_SLOPE 2.54, PBLUC_R_SQUARED 0.663, read-out: LUCIFERASE INFECTION ASSAY - IC50): 5.77 µM
Cc1nc(N2N=C3/C(=C/c4ccc(F)cc4)CCCC3C2c2ccc(F)cc2)sc1C(=O)O (stereo not given) | > 10 | IC50 (FFLUC_HILL_SLOPE 19.4, FFLUC_R_SQUARED 0.522, read-out: LUCIFERASE INFECTION ASSAY - IC50): > 10 µM
O=c1cc(CSc2nc3ccccc3c(=O)n2Cc2ccccc2)c2cc(O)c(O)cc2o1 | > 10 | IC50 (FFLUC_HILL_SLOPE 22, FFLUC_R_SQUARED 0.332, read-out: LUCIFERASE INFECTION ASSAY - IC50): > 10 µM
O=S(=O)(c1cc(C(F)(F)F)cc(C(F)(F)F)c1)N1CCC(C(c2ccccc2)c2ccccc2)CC1 | > 6.26 | IC50 (FFLUC_HILL_SLOPE 21.5, FFLUC_R_SQUARED 0.833, read-out: LUCIFERASE INFECTION ASSAY - IC50): > 6.26 µM
CCn1c(-c2ccccc2)c(C(=O)Cn2ncc(Cl)c(Cl)c2=O)c2ccccc21 | > 10 | IC50 (FFLUC_HILL_SLOPE 22, FFLUC_R_SQUARED 0.674, read-out: LUCIFERASE INFECTION ASSAY - IC50): > 10 µM
CO/N=C1\CCCc2c(C(=O)N/N=C/c3ccccc3Cl)sc(SC)c21 | 1.81 | IC50 (FFLUC_HILL_SLOPE 19.7, FFLUC_R_SQUARED 0.147, HEPG2TOX_HILL_SLOPE 0.857, HEPG2TOX_R_SQUARED 0.906, PBLUC_HILL_SLOPE 1.47, PBLUC_R_SQUARED 0.897, read-out: LUCIFERASE INFECTION ASSAY - IC50): 0.406 µM
Cc1ccc(C2=NN(C(=O)Cn3nc(C)c(S(=O)(=O)N(C)C)c3C)C(c3ccco3)C2)cc1 (stereo not given) | > 10 | IC50 (FFLUC_HILL_SLOPE 21, FFLUC_R_SQUARED 0.497, read-out: LUCIFERASE INFECTION ASSAY - IC50): > 10 µM
CC1Cc2ccccc2N1C(=O)CSC1=NNC(=C2N=Nc3ccccc32)N1c1ccccc1 (stereo not given) | 8.33 | IC50 (FFLUC_HILL_SLOPE 19.6, FFLUC_R_SQUARED 0.491, PBLUC_HILL_SLOPE 5.23, PBLUC_R_SQUARED 0.568, read-out: LUCIFERASE INFECTION ASSAY - IC50): 5.48 µM
Cn1c(-c2ccco2)nc2cnc(Nc3cccc(C(F)(F)F)c3)cc21 | > 10 | IC50 (FFLUC_HILL_SLOPE 19, FFLUC_R_SQUARED 0.549, HEPG2TOX_HILL_SLOPE 17, HEPG2TOX_R_SQUARED 0.382, PBLUC_HILL_SLOPE 1.81, PBLUC_R_SQUARED 0.343, read-out: LUCIFERASE INFECTION ASSAY - IC50): 8.8 µM
COc1ccc(O)c(C=C(c2nc3ccccc3s2)c2nc3ccccc3s2)c1 | > 10 | IC50 (FFLUC_HILL_SLOPE 21.2, FFLUC_R_SQUARED 0.491, read-out: LUCIFERASE INFECTION ASSAY - IC50): > 10 µM
O=c1c(Cl)c(Cl)cnn1-c1c(Cl)cc(C(F)(F)F)cc1Cl | 1.61 | IC50 (FFLUC_HILL_SLOPE 19, FFLUC_R_SQUARED 0.471, HEPG2TOX_HILL_SLOPE 2.99, HEPG2TOX_R_SQUARED 0.99, PBLUC_HILL_SLOPE 1.54, PBLUC_R_SQUARED 0.797, read-out: LUCIFERASE INFECTION ASSAY - IC50): 0.388 µM
Cc1nn2c(=O)cc(CSc3ccc(Cl)cc3)[nH]c2c1-c1ccccc1 | 1.17 | IC50 (FFLUC_HILL_SLOPE 20.8, FFLUC_R_SQUARED 0.612, HEPG2TOX_HILL_SLOPE 1.69, HEPG2TOX_R_SQUARED 0.683, PBLUC_HILL_SLOPE 14, PBLUC_R_SQUARED 0.557, read-out: LUCIFERASE INFECTION ASSAY - IC50): 0.998 µM
O=C1C=CC(=O)N1c1ccc(Cl)cc1 | > 15.9 | IC50 (FFLUC_HILL_SLOPE 21.9, FFLUC_R_SQUARED 0.305, PBLUC_HILL_SLOPE 2.09, PBLUC_R_SQUARED 0.529, read-out: LUCIFERASE INFECTION ASSAY - IC50): 12.2 µM

Reference: ChEMBL document CHEMBL4483862, “Open-source discovery of chemical leads for next-generation chemoprotective antimalarials” (2018)
